This passage reports EC50 results from PubChem BioAssay AID720660 (The Scripps Research Institute Molecular Screening Center, 2013).

Molecules are shown by their SMILES. Active and inactive are the calls of the source.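 The calls were made as follows: active = EC50 of 10 µM or lower, the dose giving half of maximal activation; inactive = the rest.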 A value given as a limit tells only on which side of the number the result lay.

The test deals with MG132 cells, BRM-dependent luciferase reporter, 24 h. As to the kind of experiment: SMARCA2 (BRM) activator potency, late-stage follow-up, cell-based, luminescence, dose response (AID 720660).

For the compound `O=C(NCC1(c2nc(-c3ccccc3)cs2)CCOCC1)c1cccc(-c2noc(C(F)(F)F)n2)c1`, the EC50 is > 91.2 µM (inactive). Take `Cc1cc(C)c2nc(NC(=O)C(C)C)sc2c1`: the EC50 was > 91.2 µM (inactive). For the compound `Oc1ccccc1OCc1nc2ccccc2s1`, the EC50 was > 91.2 µM (inactive). With `Cc1ccc(Nc2nc(-c3ccccc3)c(C)s2)cc1`, the EC50 is > 91.2 µM (inactive). Turning to `Clc1ccc(Cc2nc(-c3ccccc3)cs2)cc1`, the EC50 is > 91.2 µM (inactive). Regarding `Cc1nc(NC(=O)c2cccc(Br)c2)sc1C`, the EC50 is > 91.2 µM (inactive).

`COc1ccc(-c2nc(C#N)c(NC3CC3)o2)cc1`: the EC50 was > 91.2 µM (inactive).

The EC50 is the concentration needed to bring the measured effect to its halfway point.
